Reference: paper PMC6199744, “Development of Chemical Proteomics for the Folateome and Analysis of the Kinetoplastid Folateome” (ACS Infectious Diseases, 2018)

Tested on: L. major lysate proteins
Experiment: Multitargeted bead mixture chemoproteomics, single concentration competition, proteome-wide
Assay type: binding
Conditions: for fold change: vehicle control = 1

Nc1nc2[nH]cc(CCc3ccc(C(=O)N[C@@H](CCC(=O)O)C(=O)O)cc3)c2c(=O)[nH]1 [PTX, pemetrexed] was tested, and the “fold change vs vehicle control” value (protein LMJF.28.0110 […] 3 SUBUNIT, PUTATIVE) was 0.95, the “fold change vs vehicle control” value (protein LMJF.28.0490 PROPIONYL-COA C[…] CHAIN, PUTATIVE) was 1.09 and the fold change (protein LMJF.28.0710 HY[…], CONSERVED (SNARE associated Golgi protein, putative)) was 0.8. The “fold change vs vehicle control” value (protein LMJF.28.0930 HY[…], CONSERVED) was 0.96, the “fold change vs vehicle control” value (protein LMJF.28.0960 40S RIBOSOMAL PROTEIN S14) was 1.01 and the “fold change vs vehicle control” value (protein LMJF.28.1530 ATP DEPENDENT DEAD-BOX HELICASE, PUTATIVE) was 0.81. The “fold change relative to vehicle control” value (protein LMJF.28.1730, […]-ATP-ASE SUBUNIT 2, PUTATIVE) was 1.01, the “fold change vs vehicle control” value (protein LMJF.28.2430 VACUOLAR ATP SYNTHASE SUBUNIT B, PUTATIVE) was 0.95 and the “fold change relative to vehicle control” value (protein LMJF.28.2770, HEAT-SHOCK PROTEIN HSP70, PUTATIVE) was 1.13. The fold change (protein LMJF.28.2910 GLUTAMATE DEHYDROGENASE, PUTATIVE) was 0.86, the “fold change vs vehicle control” value (protein LMJF.29.0120 […]-ATPASE SUBUNIT, PUTATIVE) was 0.92 and the fold change (protein LMJF.29.0620 ATP-BINDING CASSETTE PROTEIN SUBFAMILY A, MEMBER 10, PUTATIVE) was 0.73. For the same compound, the “fold change relative to vehicle control” value (protein LMJF.29.0850, HIGH MOBILITY GROUP PROTEIN HOMOLOG TDP-1, PUTATIVE) was 1.14, the “fold change vs vehicle control” value (protein LMJF.29.0940 HY[…], CONSERVED) was 1 and the “fold change vs vehicle control” value (protein LMJF.29.1160 TRYPAREDOXIN) was 0.85. For the same compound, the “fold change vs vehicle control” value (protein LMJF.29.1240 HY[…], UNKNOWN FUNCTION) was 0.95, the “fold change vs vehicle control” value (protein LMJF.29.1270 100 kDa heat shock protein (Hsp100)) was 0.95 and the “fold change vs vehicle control” value (protein LMJF.29.1310 CARNITINE/CHOLINE ACETYLTRANSFERASE, PUTATIVE) was 0.97. The “fold change relative to vehicle control” value (protein LMJF.29.1760, PAR[…] PROTEIN 1D, PUTATIVE) was 1.4, the “fold change vs vehicle control” value (protein LMJF.29.1780 D[…] PROTEIN, PUTATIVE) was 0.9 and the fold change (protein LMJF.29.2200 GTP-BINDING PROTEIN, PUTATIVE (dynamin-1-like protein)) was 0.98. The fold change (protein LMJF.29.2310 ENOYL-COA HYDRATASE/ISOMERASE-LIKE PROTEIN) was 0.93, the “fold change vs vehicle control” value (protein LMJF.29.2360 ASPARTYL AMINOPEPTIDASE, PUTATIVE,METALLO-PEPTIDASE, CLAN MH, FAMILY M20) was 0.84 and the fold change (protein LMJF.29.2860 40S RIBOSOMAL PROTEIN S19-LIKE PROTEIN) was 1.11. For the same compound, the fold change (protein LMJF.30.0580 HY[…], CONSERVED (AMP-binding enzyme, putative)) was 0.77, the fold change (protein LMJF.30.0850 SURFACE PROTEIN AMASTIN, PUTATIVE) was 0.89 and the “fold change vs vehicle control” value (protein LMJF.30.1250 PYRIDOXAL KINASE, PUTATIVE) was 1.01. For the same compound, the “fold change relative to vehicle control” value (protein LMJF.30.3090, HY[…], CONSERVED (RNA-binding protein 42, putative)) was 1.14, the “fold change vs vehicle control” value (protein LMJF.30.3240 GLUTAMYL-TRNA SYNTHETASE, PUTATIVE) was 1.09 and the fold change (protein LMJF.30.3430 HY[…], CONSERVED (protein mkt1, putative)) was 0.97. The fold change (protein LMJF.30.3520 S-ADENOSYL[…]) was 0.85, the fold change (protein LMJF.30.3570 ZINC FINGER-DOMAIN PROTEIN, PUTATIVE) was 0.7 and the “fold change relative to vehicle control” value (protein LMJF.31.0080, HY[…], CONSERVED) was 1.19. For the same compound, the “fold change vs vehicle control” value (protein LMJF.31.0340 AMINO ACID PERMEASE, PUTATIVE) was 0.93, the fold change (protein LMJF.31.1130 N-ACYL-L-AMINO ACID AMIDOHYDROLASE, PUTATIVE) was 0.96 and the “fold change vs vehicle control” value (protein LMJF.31.1640 THIOLASE PROTEIN-LIKE PROTEIN) was 0.95. The “fold change relative to vehicle control” value (protein LMJF.31.2150, PROSTAGLANDIN F2-ALPHA SYNTHASE/D-ARABINOSE DEHYDROGENASE) was 0.94, the “fold change vs vehicle control” value (protein LMJF.31.2250 3,2-TRANS-ENOYL-COA ISOMERASE, MIT[…], PUTATIVE) was 0.92 and the “fold change vs vehicle control” value (protein LMJF.32.0750 RNA BINDING PROTEIN, PUTATIVE) was 1.04. For the same compound, the “fold change vs vehicle control” value (protein LMJF.32.1060 DYNEIN, PUTATIVE) was 0.94, the “fold change relative to vehicle control” value (protein LMJF.32.1820, IRON SUPEROXIDE DISMUTASE, PUTATIVE) was 1.02 and the “fold change relative to vehicle control” value (protein LMJF.32.2320, C-14 STEROL REDUCTASE, PUTATIVE) was 1.11. The “fold change vs vehicle control” value (protein LMJF.32.3870 MYOSIN XXI) was 0.93, the “fold change relative to vehicle control” value (protein LMJF.33.0240, THIOL-DEPENDENT REDUCTASE 1) was 1.12 and the fold change (protein LMJF.33.0280 HY[…], CONSERVED) was 1.02. For the same compound, the “fold change relative to vehicle control” value (protein LMJF.33.0890, HY[…], CONSERVED) was 0.88, the “fold change vs vehicle control” value (protein LMJF.33.1070 HY[…], UNKNOWN FUNCTION) was 1.02 and the “fold change vs vehicle control” value (protein LMJF.33.1330 CYSTEINE CONJUGATE BETA-LYASE, AMINOTRANSFERASE- LIKE PROTEIN) was 0.74. The fold change (protein LMJF.33.1590 HY[…], CONSERVED (3-ketoacyl-CoA reductase, putative)) was 1.36, the “fold change relative to vehicle control” value (protein LMJF.33.1860, ATP-BINDING CASSETTE PROTEIN SUBFAMILY D, MEMBER 3, PUTATIVE) was 1.27 and the “fold change relative to vehicle control” value (protein LMJF.33.2340, SUCCINYL-COA:3-KETOACID-COENZYME A TRANSFERASE, MIT[…], PUTATIVE) was 1.06. For the same compound, the “fold change relative to vehicle control” value (protein LMJF.33.2440, HY[…], CONSERVED) was 1.15, the “fold change relative to vehicle control” value (protein LMJF.33.2540, CARBOXYPEPTIDASE, PUTATIVE,METALLO-PEPTIDASE, CLAN MA(E), FAMILY M32) was 1.24 and the fold change (protein LMJF.33.3150 40S RIBOSOMAL PROTEIN S13, PUTATIVE) was 1.05. For the same compound, the “fold change relative to vehicle control” value (protein LMJF.34.0140, MALATE DEHYDROGENASE) was 1.48, the “fold change vs vehicle control” value (protein LMJF.34.0440 RIBOSOMAL PROTEIN S25) was 1.12 and the “fold change relative to vehicle control” value (protein LMJF.34.2580, HY[…], CONSERVED (ALBA-domain protein 3)) was 1.03. The “fold change relative to vehicle control” value (protein LMJF.34.3250, PUTATIVE PYRUVATE/INDOLE-PYRUVATE CARBOXYLASE, PUTATIVE) was 1.01, the fold change (protein LMJF.34.4370 20S […] 7 SUBUNIT, (PUTATIVE)) was 0.96 and the “fold change vs vehicle control” value (protein LMJF.34.4620 HY[…], CONSERVED) was 0.95. For the same compound, the fold change (protein LMJF.35.0070 PROHIBITIN, PUTATIVE) was 0.97, the “fold change vs vehicle control” value (protein LMJF.35.0360 ENOYL-COA HYDRATASE/ISOMERASE FAMILY PROTEIN, CONSERVED) was 1.16 and the fold change (protein LMJF.35.0370 ATP-DEPENDENT DEAD-BOX RNA HELICASE, PUTATIVE) was 0.95. The fold change (protein LMJF.35.0420 40S RIBOSOMAL PROTEIN S3A, PUTATIVE) was 1.12 and the “fold change relative to vehicle control” value (protein LMJF.35.1220, SHORT CHAIN DEHYDROGENASE, PUTATIVE) was 1.02.
